{"source": "patent US20230405007A1", "about": "“COMPOUND FOR USE IN AND METHODS OF TREATMENT OF FIBROTIC DISEASES” (Galapagos NV, priority 2020, published 2023)", "test_system": "subjects with idiopathic pulmonary fibrosis (IPF)", "test": "Phase II randomized, double-blind, placebo-controlled IPF clinical study: monitoring of adverse events (SAEs, TEAEs)", "type": "in vivo, human", "conditions": "for Subjects with Serious TEAE / Subjects with TEAE leading to treatment discontinuation (LD): 100 mg orally once daily, 26 weeks", "from_the_text": "The study of the current example was a randomized, double-blind, parallel group, placebo-controlled, multicenter, Phase II study to evaluate the efficacy, safety and tolerability of Compound 1 in subjects with idiopathic pulmonary fibrosis (IPF). The primary objective of this study was to evaluate the efficacy of Compound 1 treatment in subjects with IPF on pulmonary function as evaluated by FVC compared to placebo over 26 weeks.\nThe study provided for 2 types of interventions: • Drug: Compound 1—100 mg administered orally once daily as 2 capsules of 50 mg with or without food • Drug: Compound 1 placebo—administered orally once daily as 2 capsules with or without food\nStudy participants were randomized over 2 study arms: • 1. Experimental: Compound 1: Compound 1 100 mg, for 26 weeks • 2. Placebo Comparator: Placebo: Compound 1 placebo for 26 weeks\nTo be eligible, the subjects met the following criteria: • Males or females of non-child-bearing potential, aged ≥40 years. • A diagnosis of IPF within 5 years prior to the screening visit as per American Thoracic Society (ATS)/European Respiratory Society (ERS)/Japanese Respiratory Society (JRS)/Latin American Thoracic Association (ALAT) guidelines. • Meeting all of the following criteria at screening and during the screening period: • FVC≥50% predicted of normal • Disease progression in the last 9 months prior to the screening period and at screening, defined as at least one prescreening FVC value and screening value with a decline of FVC (% predicted or mL), at the investigator's discretion • Diffusing capacity for the lungs for carbon monoxide (DLCO)≥30% predicted of normal (corrected for hemoglobin) • Ratio of forced expiratory volume in one second (FEV1) to FVC≥0.70 • In a stable condition and suitable for study participation based on the results of a medical history, physical examination, vital signs, 12-lead ECG, and laboratory evaluation. Stable condition is based on the clinical judgment of the investigator, co-morbidities should be treated according to the local applicable guidelines. Concomitant medication for comorbidities should be stabilized from 4 weeks before screening and during the screening period (stable defined as no change of dose or regimen). • Estimated minimum life expectancy of 12 months for non-IPF related disease in the opinion of the investigator. • Male subjects with female partners of child bearing potential are willing to comply with the contraceptive methods described in the respective protocol prior to the first dose of the IMP, during the clinical study, and for at least 12 weeks after the last dose of the IMP. • Able to walk at least 150 meters during the 6MWT at screening; without having a contraindication to perform the 6MWT. • Able to understand the importance of adherence, and willing to comply to study treatment, study procedures and requirements as per study protocol, including the concomitant medication restrictions. […]", "key": {"[1]": {"conditions": "Summary All (N = 68, both arms)"}, "[2]": {"conditions": "background therapy Nintedanib (N = 24, both arms)"}, "[3]": {"conditions": "background therapy None (N = 25, both arms)"}, "[4]": {"conditions": "background therapy Pirfenidone (N = 19, both arms)"}}, "data": [{"smiles": "O=c1nc(OC[C@@H]2COCCO2)cc2n1CCc1cc(C#CC3CC3)ccc1-2", "note": "[GLPG1205, 9-Cyclopropylethynyl-2-((S)-1-[1,4]dioxan-2-ylmethoxy)-6,7-dihydro-pyrimido[6,1-a]iso quinolin-4-one]", "values": [{"measurement": "Subjects with Serious TEAE", "setting": "[1]", "value": 9, "unit": "n"}, {"measurement": "Subjects with TEAE leading to treatment discontinuation (LD)", "setting": "[1]", "value": 10, "unit": "n"}, {"measurement": "Subjects with Serious TEAE", "setting": "[2]", "value": 7, "unit": "n"}, {"measurement": "Subjects with TEAE leading to treatment discontinuation (LD)", "setting": "[2]", "value": 6, "unit": "n"}, {"measurement": "Subjects with Serious TEAE", "setting": "[3]", "value": 2, "unit": "n"}, {"measurement": "Subjects with TEAE leading to treatment discontinuation (LD)", "setting": "[3]", "value": 2, "unit": "n"}, {"measurement": "Subjects with Serious TEAE", "setting": "[4]", "value": 0, "unit": "n"}, {"measurement": "Subjects with TEAE leading to treatment discontinuation (LD)", "setting": "[4]", "value": 2, "unit": "n"}, {"measurement": "serious adverse events (SAEs) and/or treatment emergent adverse events (TEAEs)", "setting": "administered in combination with or alongside nintedanib", "value": "increased"}]}]}
